“Also recorded” adds a separate entry of the source.
Experiments:
15-PGDH (Hpgd) = assay: Senolytic ABT-263 treatment of aged mice: 15-PGDH in muscle; assay type: in vivo, mouse; conditions: 20 month mice, analyzed 2 months later
Method: For ABT-263 treatments, 20 month old C57/B16 mice were treated with vehicle (ethanol:polyethylene glycol 400:Phosal 50 PG) or ABT-263 (in ethanol:polyethylene glycol 400:Phosal 50 PG) by oral gavage for 2 cycles of 1 week with a 2 week rest period between cycles as described previously (1). For the Duchenne muscular dystrophy (DMD) mouse model, we used 8-10 month old mdx4cv/mTRKO(G2) generated as previously described (2).
(§1) For ABT-263 treatments, 20 month old C57/B16 mice were treated with vehicle (ethanol:polyethylene glycol 400:Phosal 50 PG) or 50 mg/kg/day ABT-263 (in ethanol:polyethylene glycol 400:Phosal 50 PG) by oral gavage for 2 cycles of 1 week with a 2 week rest period between cycles as described previously (5). Intramuscular injection of PGE2 was carried out in young mice with either 13 nmol PGE2 (Cayman Chemicals) or vehicle control (PBS) into the TA muscle. Mouse transgenic strains were purchased from The Jackson Laboratory (EP4^flox/flox; EP4O) No. 028102 (6). We validated these genotypes by appropriate PCR-based strategies. Studies were performed with male mice.
We collected and prepared recipient Tibialis anterior (TA) or gastrocnemius (GA) muscle tissues for histology as previously described (6). […]

INK-ATTAC mice = assay: AP20187 clearance of senescent cells in INK-ATTAC mice; assay type: in vivo, mouse; conditions: 16-month treatment
From the text: We performed all experiments and protocols in compliance with the institutional guidelines of Stanford University and Administrative Panel on Laboratory Animal Care (APLAC). Middle aged (18-20 mo.) and aged (>24 mo.) mice C57BL/6 were obtained the US National Institute on Aging (NIA) for aged muscle studies, and young (2-4 mo.) wild-type C57BL/6 mice from Jackson Laboratory. INK-ATTAC mice were generated as previously described (1). INK-ATTAC healthspan assessments. INK-ATTAC mice were crossed onto the C57BL6/J genetic background and maintained in specific-pathogen free housing on a 12-hour dark/light cycle for study duration. At 12 months of age, male mice were either utilized for baseline healthspan assessments and terminal muscle harvest or randomized to receive twice-weekly vehicle or AP20187 (2 mg/kg intraperitoneal injection; B/B homodimerizer, Clontech) until assessment and sacrifice at 28 months of age (2). […] Time and distance to exhaustion was performed as previously described (4) for SW-treated mice and their controls.
We isolated and enriched myogenic cells as previously described (6-9). Briefly, hindlimb muscles were minced and digested using a collagenase and dispase solution by the MACs Dissociator (Miltenyi). Using FACs, for myogenic stem and progenitor cells we isolated cells negative for the hematopoietic lineage and non-muscle cells (CD45-/CD11b-/CD31-/Scal-) and sorted for a7-integrin*cells markers. For macrophages isolation we sorted a7-/Cd11b+/Cd11c-/F4/80^+ populations. For endothelial cells we sorted a7-/Cd11b-/Cd11c/CD31+. We generated and analyzed flow cytometry scatter plots using FlowJo v10.0.

myotubes = assay: Differentiated (starved) cultured myotubes: Atrogin1 expression and diameter; assay type: cell-based, mouse
Method: For myotubes we performed fixation using 4% PFA, blocking and permeabilization using PBS/1% BSA/0.1% Triton X-100 and staining with primary antibodies anti-MyHC (Thermo Fisher Scientific, catalog #14-6503-82, clone MF-20, 1:500) and then with AlexaFluor secondary Antibodies (Jackson ImmunoResearch Laboratories, 1:500). We counterstained nuclei with DAPI (Invitrogen).
Primary myoblasts were grown in myogenic cell culture medium containing DMEM/F10 (50:50), 15% FBS, 2.5 ng ml-1 fibroblast growth factor-2 and 1% penicillin-streptomycin. For differentiation experiments, confluent myoblasts were grown in medium containing 5% horse serum, DMEM. […] Myoblasts were isolated from EP4^fl/fl mice and received either a mCherry/Cre lentivirus or a mock infection as previously described (5).
For cultured myotubes we performed fixation using 4% PFA, blocking and permeabilization using PBS/1% BSA/0.1% Triton X-100 and staining with primary antibodies anti-MYH (Thermo Fisher Scientific, catalog #14-6503-82, clone MF-20, 1:500) and then with AlexaFluor secondary Antibodies (Jackson ImmunoResearch Laboratories, 1:500). We counterstained nuclei with DAPI (Invitrogen). We acquired images using the KEYENCE BZ-X700 all-in-one fluorescence microscope (Keyence) with 20x/0.75 N.A. objectives. We analyzed the fiber area using the Keyence Advanced Analysis Software. For fiber area the entire maximum cross-sectional area of the muscle was quantified or at least 10 fields of LAMININ or WGA stained myofiber cross-sections encompassing over 400 myofibers were captured for each mouse as above. For fiber typing analysis, the MATLAB application SMASH-Semi-Automatic Muscle Analysis Using Segmentation of Histology, was used as previously described (12). Data analyses were blinded. The researchers performing the imaging acquisition and scoring were unaware of treatment condition given to sample groups analyzed.
Primary murine myoblasts were grown in myogenic cell culture medium containing DMEM/F10 (50:50), 15% FBS, 2.5 ng ml^−1 fibroblast growth factor-2 and 1% penicillin-streptomycin. […] For differentiation experiments, confluent myoblasts were grown in medium containing 5% horse serum, DMEM.

[1] = system: cyclic AMP response element binding protein (CREB); assay: Immunoblots of muscle lysates after intramuscular PGE2; assay type: in vivo, mouse; conditions: young mice, 13 nmol i.m., 0, 30 or 60 minutes
Method: as §1
Total lysates were prepared using lysis buffer (50 mM Tris-HCl pH 7.5, 150 mM NaCl, 4 mM CaCl, 1.5% Triton X-100, protease inhibitors and micrococcal nuclease). For tissue extracts, lysates were homogenized a FastPrep 24 homogenizer (MP Biomedicals) for 40 seconds at a speed of 6 m/s. We used the following antibodies: 15-PGDH (Santa Cruz Biotechnology, cat # sc-271418); phospho-AKT (Ser 473) (Cell Signaling cat #4060), AKT (Cell signaling cat #2920); phospho-FoxO1 (Thr24)/FoxO3a (Thr32) Antibody (Cell Signaling cat #9464T); Foxo3a (Cell Signaling cat #2497); phospho-CREB (Ser133) (Cell Signaling cat #9198S); phospho-S6 ribosomal protein (Ser235/236) (Cell Signaling cat#4858); SMC1 (Bethyl Laboratories cat# A300-055A-T). […]

AKT/FOXO pathway = assay: Immunoblots of human myotubes treated with PGE2; assay type: cell-based; conditions: PGE2 10 ng/ml, 15 or 30 minutes
Method: Primary murine myoblasts were grown in myogenic cell culture medium containing DMEM/F10 (50:50), 15% FBS, 2.5 ng ml^-1 fibroblast growth factor-2 and 1% penicillin-streptomycin. […] For differentiation experiments, confluent myoblasts were grown in medium containing 5% horse serum, DMEM. […] Total lysates were prepared using lysis buffer (50 mM Tris-HCl pH 7.5, 150 mM NaCl, 4 mM CaCl, 1.5% Triton X-100, protease inhibitors and micrococcal nuclease). […] We used the following antibodies: 15-PGDH (Santa Cruz Biotechnology, cat # sc-271418); phospho-AKT ([…]) (Cell Signaling cat #4060), AKT (Cell signaling cat #2920); phospho-FoxO1 ([…])/FoxO3a ([…]) Antibody (Cell Signaling cat #9464T); Foxo3a (Cell Signaling cat #2497); phospho-CREB (Ser133) (Cell Signaling cat #9198S); phospho-S6 ribosomal protein (Ser235/236) (Cell Signaling cat#4858); SMC1 (Bethyl Laboratories cat# […]). We used HRP conjugated secondary antibodies and developed by incubating the membranes with ECL Western Blotting Substrate (Nacalai USA) and imaging using the ChemiDoc Imaging System (BioRad).

murine myotubes = assay: Protein synthesis by in vitro SUnSET (puromycin incorporation); assay type: cell-based, mouse; conditions: PGE2 10 ng/ml daily, 4 d
Method: The SUnSET assay was used to monitor the rate of protein synthesis as previously described (4). Briefly, 10 min prior harvesting the cells, puromycin was added to culture medium at […]. As a control, cycloheximide to block protein translation was added. Cell extracts were then processed for western blotting using anti-puromycin 12D10 antibody (Millipore).

SMILES: CC1(C)CCC(c2ccc(Cl)cc2)=C(CN2CCN(c3ccc(C(=O)NS(=O)(=O)c4ccc(N[C@H](CCN5CCOCC5)CSc5ccccc5)c(S(=O)(=O)C(F)(F)F)c4)cc3)CC2)C1 [ABT-263, navitoclax]
- 15-PGDH (Hpgd) mRNA / gene expression levels in muscle (15-PGDH (Hpgd); 50 mg/kg/day oral gavage, 2 cycles, 50 mg/kg/day): reduced; also recorded: markedly decreased
- percentage of cells expressing 15-PGDH by immunohistochemistry (15-PGDH (Hpgd)): markedly decreased

SMILES: CC[C@H](C(=O)N1CCCC[C@H]1C(=O)O[C@H](CCc1ccc(OC)c(OC)c1)c1cccc(OCC(=O)NCC(CNC(=O)COc2cccc([C@@H](CCc3ccc(OC)c(OC)c3)OC(=O)[C@@H]3CCCCN3C(=O)[C@@H](CC)c3cc(OC)c(OC)c(OC)c3)c2)CN(C)C)c1)c1cc(OC)c(OC)c(OC)c1 [AP]
- 15-PGDH levels in FACS isolated macrophages (INK-ATTAC mice): reduced levels
- PGE2 levels in muscle by LC-MS/MS (INK-ATTAC mice): increase
- 15-PGDH transcript levels in muscle (INK-ATTAC mice; 2 mg/kg i.p. twice weekly): markedly reduced
- endurance (distance run on a treadmill until exhaustion and body weight) (INK-ATTAC mice; 28 months): increase
- grip strength (INK-ATTAC mice; 28 months): increase
- hindlimb muscle mass (TA and GA) (INK-ATTAC mice; 28 months): increase

SMILES: CC(C(=O)Nc1cc(C#N)ccc1CCCC(=O)O)c1ccc(F)c2ccccc12 (stereo not shown) [ONO-AE3-208]
- PGE2-induced increase of myotube diameter in the presence of the antagonist (myotubes; ONO-AE3-208 1 μM with PGE2 10 ng/ml): abrogated; also recorded: not seen

SMILES: CCCCC[C@H](O)/C=C/[C@H]1[C@H](O)CC(=O)[C@@H]1C/C=C\CCCC(=O)O [PGE2, Prostaglandin E2]
- CREB activation in skeletal muscles [1]: activates; also recorded: activation
- FOXO (pFOXO3a) (AKT/FOXO pathway): inactivated
- pAKT levels (AKT/FOXO pathway): increased levels
- phospho-S6 ribosomal protein (pS6rp) (AKT/FOXO pathway): activated
- myotube diameter (myotubes; starved (24 hr) or non-starved myotubes, PGE2 10 ng/ml, SW 1 μM): increased; also recorded: marked increase
- Atrogin1 expression (myotubes; starved myotubes, PGE2 10 ng/ml): greatly decreased
- protein synthesis quantified by puromycin incorporation (murine myotubes): increased

Source: patent publication US20220304992A1, “METHODS OF REJUVENATING AGED TISSUE BY INHIBITING 15-HYDROXYPROSTAGLANDIN DEHYDROGENASE (15-PGDH)” (The Board of Trustees of the Leland Stanford Junior …, priority 2019, published 2022)
